Values after ≈ are worked out from the molar mass of the structure shown.
How the values were obtained:
[1] = system: Staphylococcus aureus-SMITH (GC 4543); assay: acute lethal infection in mice; assay type: in vivo; details: acute lethal infection, female CD-1 mice, intraperitoneal challenge, intravenous 30 min. after infection, 7 day survival
In short: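 Female CD-1 mice (20+/−2 gm) were infected intraperitoneally with enough bacteria, suspended in trypticase soy broth or hog gastric mucin, to kill untreated controls within 24-48 hr. Compound in saline or 5% dextrose was given intravenously 30 min post-infection, five mice per dose. ED50 came from pooled 7 day survival of 3 tests.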

Enterococcus sp. = assay: in vitro antibacterial evaluation, MIC by broth dilution; assay type: cell-based; details: broth dilution, 18 hours at 35° C.
In short: (§1)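 Broth dilution per NCCLS M7-A2 in Mueller-Hinton II medium, inoculum 5×10^5 CFU/mL, antibiotic range 64-0.06 μg/mL. MIC taken as lowest concentration inhibiting growth; Gram-positive panel includes recent clinical isolates resistant to methicillin, penicillin and/or vancomycin.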

Streptococcus sp. = assay: as above; assay type: cell-based; details: broth dilution, 18 hours at 35° C.
In short: as §1

Staphylococcus sp. = assay: as above; assay type: cell-based; details: broth dilution, 18 hours at 35° C.; for MIC Staphylococcus aureus (GC 1131): strain GC 1131
In short: as §1

Escherichia coli = assay: as above; assay type: cell-based
In short: as §1

CC(c1ccccc1)C1NC(=O)CNC(=O)C(CO)NC(=O)C(C(O)C2CNC(=N)N2C2OC(CO)C(O)C(O)C2O)NC(=O)C(C(O)C2CNC(=N)N2)NC(=O)C(Cc2ccc(OC3OC(CO)C(OC4OC5COC(c6ccc7c(c6)OCO7)OC5C(O)C4O)C(O)C3O)cc2)NC1=O (stereo not drawn) [Example 143, Cyclo[glycyl-β-methylphenylalanyl-O-[4-O-[4,6-O-(1,3-benzodioxol-5-ylmethylene)hexopyranosyl]hexopyranosyl]tyrosyl-3-(2-iminoimidazolidin-4-yl)seryl-3-(3-hexopyranosyl-2-iminoimidazolidin-4-yl)serylseryl]]
median effective dose (ED50), Staphylococcus aureus-SMITH (GC 4543) [1]: 0.28 mg/kg
MIC Enterococcus avium (GC 4558) (Enterococcus sp.; Enterococcus avium (GC 4558)): 8 to 16 µg/mL
MIC Enterococcus faecalis (ATCC 29212) (Enterococcus sp.; Enterococcus faecalis (ATCC 29212)): 8 to 16 µg/mL
MIC Enterococcus faecalis (GC 2242) (Enterococcus sp.; Enterococcus faecalis (GC 2242)): 4 to 16 µg/mL
MIC Enterococcus faecalis (GC 2691) (Enterococcus sp.; Enterococcus faecalis (GC 2691)): 8 µg/mL (≈ 5.6 µM)
MIC Enterococcus faecalis (GC 3059) (Enterococcus sp.; Enterococcus faecalis (GC 3059)): 8 to 16 µg/mL
MIC Enterococcus faecalis (GC 4552) (Enterococcus sp.; Enterococcus faecalis (GC 4552)): 8 to 16 µg/mL
MIC Enterococcus faecalis (GC 4553) (Enterococcus sp.; Enterococcus faecalis (GC 4553)): 8 to 16 µg/mL
MIC Enterococcus faecalis (GC 4554) (Enterococcus sp.; Enterococcus faecalis (GC 4554)): 8 to 16 µg/mL
MIC Enterococcus faecalis (GC 6189) (Enterococcus sp.; Enterococcus faecalis (GC 6189)): 4 to 16 µg/mL
MIC Enterococcus faecium (GC 2243) (Enterococcus sp.; Enterococcus faecium (GC 2243)): 8 to 16 µg/mL
MIC Enterococcus faecium (GC 4556) (Enterococcus sp.; Enterococcus faecium (GC 4556)): 8 to 16 µg/mL
MIC Enterococcus faecium (GC 4557) (Enterococcus sp.; Enterococcus faecium (GC 4557)): 2 to 8 µg/mL
MIC Enterococcus faecalis (ATCC 29212) (Enterococcus sp.; strain ATCC 29212): 8 to 16 µg/mL
MIC Enterococcus faecalis (GC 2242) (Enterococcus sp.; strain GC 2242): 4 to 16 µg/mL
MIC Enterococcus faecium (GC 2243) (Enterococcus sp.; strain GC 2243): 8 to 16 µg/mL
MIC Enterococcus faecalis (GC 2691) (Enterococcus sp.; strain GC 2691): 8 µg/mL (≈ 5.6 µM)
MIC Enterococcus faecalis (GC 3059) (Enterococcus sp.; strain GC 3059): 8 to 16 µg/mL
MIC Enterococcus faecalis (GC 4552) (Enterococcus sp.; strain GC 4552): 8 to 16 µg/mL
MIC Enterococcus faecalis (GC 4553) (Enterococcus sp.; strain GC 4553): 8 to 16 µg/mL
MIC Enterococcus faecalis (GC 4554) (Enterococcus sp.; strain GC 4554): 8 to 16 µg/mL
MIC Enterococcus faecium (GC 4556) (Enterococcus sp.; strain GC 4556): 8 to 16 µg/mL
MIC Enterococcus faecium (GC 4557) (Enterococcus sp.; strain GC 4557): 2 to 8 µg/mL
MIC Enterococcus avium (GC 4558) (Enterococcus sp.; strain GC 4558): 8 to 16 µg/mL
MIC Enterococcus faecalis (GC 6189) (Enterococcus sp.; strain GC 6189): 4 to 16 µg/mL
MIC Streptococcus agalactiae (GC 4564) (Streptococcus sp.; Streptococcus agalactiae (GC 4564)): 0.5 to 1 µg/mL
MIC Streptococcus pneumoniae (ATCC 6301) (Streptococcus sp.; Streptococcus pneumoniae (ATCC 6301)): 0.12 to 0.5 µg/mL
MIC Streptococcus pneumoniae (GC 1894) (Streptococcus sp.; Streptococcus pneumoniae (GC 1894)): <0.06 to 0.12 µg/mL
MIC Streptococcus pneumoniae (GC 4565) (Streptococcus sp.; Streptococcus pneumoniae (GC 4565)): 0.25 to 0.5 µg/mL
MIC Streptococcus pyogenes (GC 4563) (Streptococcus sp.; Streptococcus pyogenes (GC 4563)): 0.25 to 1 µg/mL
MIC Streptococcus pneumoniae (ATCC 6301) (Streptococcus sp.; strain ATCC 6301): 0.12 to 0.5 µg/mL
MIC Streptococcus pneumoniae (GC 1894) (Streptococcus sp.; strain GC 1894): <0.06 to 0.12 µg/mL
MIC Streptococcus pyogenes (GC 4563) (Streptococcus sp.; strain GC 4563): 0.25 to 1 µg/mL
MIC Streptococcus agalactiae (GC 4564) (Streptococcus sp.; strain GC 4564): 0.5 to 1 µg/mL
MIC Streptococcus pneumoniae (GC 4565) (Streptococcus sp.; strain GC 4565): 0.25 to 0.5 µg/mL
MIC Staphylococcus aureus (GC 1131) (Staphylococcus sp.; inoculum 5×10^5 CFU/mL): 2 to 4 µg/mL
MIC Staphylococcus aureus (ATCC 29213) (Staphylococcus sp.; strain ATCC 29213): 2 to 4 µg/mL
MIC Staphylococcus aureus (GC 1131) (Staphylococcus sp.): 2 to 4 µg/mL
MIC Staphylococcus aureus (GC 3051) (Staphylococcus sp.; strain GC 3051): 2 to 4 µg/mL
MIC Staphylococcus aureus (GC 3053) (Staphylococcus sp.; strain GC 3053): 4 to 8 µg/mL
MIC Staphylococcus aureus (GC 4541) (Staphylococcus sp.; strain GC 4541): 2 to 4 µg/mL
MIC Staphylococcus aureus (GC 4542) (Staphylococcus sp.; strain GC 4542): 1 to 4 µg/mL
MIC Staphylococcus aureus-SMITH (GC 4543) (Staphylococcus sp.; strain GC 4543): 2 to 4 µg/mL
MIC Staphylococcus aureus (GC 4544) (Staphylococcus sp.; strain GC 4544): 2 to 8 µg/mL
MIC Staphylococcus aureus (GC 4545) (Staphylococcus sp.; strain GC 4545): 2 to 4 µg/mL
MIC Staphylococcus haemolyticus (GC 4546) (Staphylococcus sp.; strain GC 4546): 0.5 to 2 µg/mL
MIC Coagulase Negative Staphylococcus (GC 4547) (Staphylococcus sp.; strain GC 4547): 1 to 2 µg/mL
MIC Coagulase Negative Staphylococcus (GC 4548) (Staphylococcus sp.; strain GC 4548): 1 to 2 µg/mL
MIC Coagulase Negative Staphylococcus (GC 4549) (Staphylococcus sp.; strain GC 4549): 1 µg/mL (≈ 0.701 µM)
MIC Coagulase Negative Staphylococcus (GC 4551) (Staphylococcus sp.; strain GC 4551): 2 to 4 µg/mL
MIC Coagulase Negative Staphylococcus (GC 6257) (Staphylococcus sp.; strain GC 6257): 1 to 2 µg/mL
MIC Staphylococcus aureus-SMITH (GC 4543) (Staphylococcus sp.; strain SMITH GC 4543): 2 to 4 µg/mL
MIC Escherichia coli (ATCC 25922) (Escherichia coli; strain ATCC 25922, 18 hours at 35° C.): >64 µg/mL
MIC Escherichia coli (GC 4559) (Escherichia coli; strain GC 4559, 18 hours at 35° C.): 64 µg/mL (≈ 44.8 µM)
MIC Escherichia coli (GC 4560) (Escherichia coli; strain GC 4560, 18 hours at 35° C.): 1 to 2 µg/mL
